Results reported in patent US7790896B2, “RNA-selective probes for live cell imaging of nuclear structure and function” (New York University, priority 2006, dated 2010).

Columns and labels:
3T3 cells = assay: Phototoxicity test, MTS assay of irradiated cells; assay type: cell-based, mouse; settings: dye 5 μM (Hoechst 1 μM), irradiated 5 minutes, 24 hours incubation
Experimental: Dye DMSO stock solutions were diluted by fresh medium into working concentration (5 μM). Cells were cultured in 96-well plate for 12 hours before experiments. The cell medium was exchanged with dye medium solutions. Cells were then incubated in at 37° C., in 5% CO2 for 25 minutes before being irradiated by fluorescent light using the appropriate working filter (FITC for E36 and E144; Cy3 for F22) for 5 minutes. The plates were then incubated at 37° C. in 5% CO2 The cell viability was measured by MTS assay after 5 and 24 hours following the cytotoxicity measurement procedure. Duplicated experiments have been tested.
Phototoxicity is also an important factor in evaluating applicability of new fluorescent probes for live cell imaging. […] Nevertheless, it is desirable for the new imaging probes to be as non-phototoxic as possible. To investigate the phototoxicity of the present RNA-selective compounds, cellular viability of irradiated cells using MTS assay was assessed. Cells were incubated with dyes (E36, E144, and F22) in their working concentration (5 μM), and then irradiated with the appropriate filters using the fluorescent microscope (FITC for E36 and E144; Cy3 for F22). While light exposures used for imaging experiments are generally a few seconds long at most, cells were irradiated for 5 minutes for prolonged toxicity measurement. […]

[1] = tested on: Hela, A549, 3T3, and 3T3-L1; assay: Optimization of working concentration and imaging properties, live cell staining; assay type: cell-based, human, mouse; settings: 20, 10, 5 and 1 μM tested in four cell lines
Experimental: (§1) All cell staining imaging followed the same procedure. Generally, dyes in dry state were first dissolved in DMSO to obtain the stock solution. The stock solutions were then added directly to the cell culture wells to reach the desired concentration. Total DMSO was lower than 0.1%. After adding dyes, cells were incubated at 37° C. in 5% CO2 for 25 minutes. The medium was then removed and cells were rinsed with fresh medium twice. The cells were then imaged at ambient temperature in the medium. Exposure time was kept less than 5 seconds and adjusted to each dye.
In fluorescence microscopic imaging studies, it is always desirable to use as little dye as possible to stain organelles in order to maximize specificity and minimize dye toxicity and cell death. To determine the lowest working concentration of each dye, four different concentrations (20 μM, 10 μM, 5 μM, and 1 μM) were tested in four cell lines (Hela, A549, 3T3, and 3T3-L1). Dyes E36, E144, and F112 were imaged using FITC channel, and F22 was imaged using Cy3 channel. Generally, a quality fluorescence signal for each dye was produced using a concentration of 5 μM for E36, E144, and F22 and 10 μM for F112 (Table 5). It was interesting to observe that compound F22 was brighter in 3T3 cells, and a concentration of 1 μM was sufficient for a clear image (FIG. 4). […] Little photobleaching and no obvious cell morphology or viability changes were observed during the tests.

[2] = Fluorescent properties of free dye solution; assay type: physicochemical; settings: TE buffer pH 7.5, dye 5 μM
Experimental: (§2) The fluorescence spectra data in the primary screening and selected dyes titration assay study was obtained by Gemini XS plate reader. RNA solution was prepared right before the assay experiments to avoid possible degradation and contamination. In the primary screening, 1 mg/mL RNA (type VI from torula yeast) buffer solution was used. Point scans were carried out first using five Ex/Em point sets ([…], 400/500, 450/550, 500/600, 550/650 nm). Spectra scans were then carried out for the selected dyes. Excitation wavelengths were set at 350 nm, 400 nm, 450 nm, 500 nm, and 550 nm and the emission wavelengths were scanned. RNA (16S- and 23S-ribosomal from E. coli) and DNA (salmon testes) titration experiments and quantum yield/extinction coefficient determination for the three best dyes were carried out by the plate reader as well. Excitation λmax obtained from F-2500 Hitachi Fluorophotometer was used. Absorbance wavelength was determined by SpectraMax Plus^384 absorbance plate reader. […] was chosen as standard and 480 nm was used as excitation wavelength in the scanning for quantum yield determination. […] Generally, the λmax (nm) of emission was determined by scanning a fixed excitation first, and the μmax (nm) of excitation was determined by scanning emission spectrum with a fixed μem (nm). The detailed fluorescent properties of three selected dyes including; excitation/emission μmax, the quantum yield and extinction coefficient of both free dye solution and dye-RNA solution were assessed (Table 5).

[3] = tested on: Fixed-permeabilized Hela cells; assay: DNase and RNase digest test; assay type: cell-based, human; settings: dye 50 μM, 2 hours
Experimental: Cells were first fixed using cold (−4° C.) pure methanol for 1 minute at ambient temperature. The cell membrane was then permeabilized by immersion in 1% Triton X-100 for 2 minutes. After rinsing with PBS twice, 100 μL of 50 μM dye PBS solution was added to three adjacent wells. Cells were then incubated in this dye PBS solution for 15 minutes in ambient temperature before being rinsed with clean PBS twice. 100 μL clean PBS (as control experiment), 30 μg/mL DNase (Sigma), or 25 μg/mL DNase-Free RNase (GE) was added to the three adjacent wells and incubated at 37° C. in 5% CO2 for 2 hours. Cells were rinsed with clean PBS twice before imaging. For each dye test, the fluorescent images were obtained using equal exposure time for control, DNase and RNase experiments. DAPI (10 μM) in PBS and SYTO®RNASelect (5 μM) in PBS solution were used for dual staining experiments. Duplicate experiments have been tested.
To further confirm that the compounds selectively bind RNA, a deoxyribonuclease (DNase) and ribonuclease (RNase) digest test was performed. In DNase digest, only the DNAs in the cell would be hydrolyzed. By contrast, in RNase digest, only RNAs would be hydrolyzed. Fixed-permeabilized Hela cells were used in this experiment and DAPI and SYTO®RNASelect were used as control dyes (FIG. 6). […] Still, its higher RNA-selective binding in live cell might be due to the complicated in vivo live cell environment, which may preferably direct this dye to nucleoli.

[4] = tested on: 3T3 fibroblast cells, 3T3-L1 adipocyte cells, Hela cells and A549 human lung carcinoma cells; assay: Secondary screening: live cell nuclear imaging properties in four cell lines; assay type: cell-based, mouse; settings: dye 25 μM
Experimental: as §1
The selected compounds from both primary screens (total 88) were resynthesized in large scale and purified. The compounds' live cell nuclear imaging properties were then tested by four cell lines, including two mouse cell lines: 3T3 fibroblast cells and 3T3-L1 adipocyte cells; and two human cancer cell lines: Hela cells and A549 human lung carcinoma cells. Herein, the final dye concentration in each test was decreased to 25 μM and all the experiments were repeated to establish reproducibility. […] Each of the three dyes contained at least one high affinity nucleic acid functional group (Trotta et al., “Solution Structure of DAPI Selectively Bound in the Minor Groove of a DNA T-T Mismatch-Containing Site: NMR and Molecular Dynamics Studies,” Nucleic Acids Res. 26:4706-4713 (1998); Loontiens et al., “Binding Characteristics of Hoechst 33258 with Calf Thymus DNA, Poly[d(A-T)], and d(CCGGAATTCCGG): Multiple Stoichiometries and Determination of Tight Binding with a Wide Spectrum of Site Affinities,” Biochem. 29:9029-9039 (1990); Zipper et al., “Investigations on DNA Intercalation and Surface Binding by SYBR Green I, Its Structure Determination and Methodological Implications,” Nucleic Acid Res. 32:E103 (2004); Glazer et al., “Stable Dye-DNA Intercalation Complexes as Reagents for High-Sensitivity Fluorescence Detection,” Nature 359:859-861 (1992), which are hereby incorporated by reference in their entirety) in building block II such as the terminal secondary amine for F22 and F112, the trimethoxy for E 144, and the indole for E36.

[5] = tested on: RNA (16S- and 23S-ribosomal from E. coli); assay: Fluorescent properties of dye-RNA solution; assay type: binding; settings: TE buffer pH 7.5, dye 5 μM, RNA 200 μg/mL
Experimental: as §2

[6] = Fluorescence spectrum in TE buffer of dyes selected from live cell imaging; assay type: physicochemical; settings: dye 10 μM in TE buffer
Experimental: The fluorescence spectra data in the primary screening and selected dyes titration assay study was obtained by Gemini XS plate reader. RNA solution was prepared right before the assay experiments to avoid possible degradation and contamination. In the primary screening, 1 mg/mL RNA (type VI from torula yeast) buffer solution was used. Point scans were carried out first using five Ex/Em point sets ([…], 400/500, 450/550, 500/600, 550/650 nm). Spectra scans were then carried out for the selected dyes. Excitation wavelengths were set at 350 nm, 400 nm, 450 nm, 500 nm, and 550 nm and the emission wavelengths were scanned. RNA (16S- and 23S-ribosomal from E. coli) and DNA (salmon testes) titration experiments and quantum yield/extinction coefficient determination for the three best dyes were carried out by the plate reader as well. Excitation λmax obtained from F-2500 Hitachi Fluorophotometer was used. Absorbance wavelength was determined by SpectraMax Plus^384 absorbance plate reader. […] was chosen as standard and 480 nm was used as excitation wavelength in the scanning for quantum yield determination.

Row | Structure (SMILES) | Phototoxicity (3T3 cells) | Optimum Concentration for live cell imaging [1] | EM (emission λmax), Buffer [2] | EX (excitation λmax), Buffer [2] | Fluorescence after RNase digest ([3]; 25 μg/mL DNase-Free RNase) | Fluorescence after DNase digest ([3]; 30 μg/mL DNase) | Live cell nuclear imaging properties (basis of selection) [4] | EM (emission λmax), RNA [5] | EX (excitation λmax), RNA [5] | SPECTRUM EM [6] | SPECTRUM EX [6]
1 | CN1CCN(c2ccc3[nH]c(-c4ccc5[nH]c(-c6ccc(O)cc6)nc5c4)nc3c2)CC1 [Hoechst 33258] | as toxic in 3T3 cells as F22 |  |  |  |  |  |  |  |  |  | 
2 | COc1ccc2c(ccc(/C=C/c3ccc(N(C)C)cc3[N+](=O)[O-])[n+]2C)c1 [Dye F112] |  | 10 µM | 516 nm | 462 nm | slight stain of the nucleus | bright nucleolar staining remained | selective nucleolar targeting, high fluorescence intensity, low photobleaching, and low cellular toxicity | 514 nm | 465 nm | 620 nm | 500 nm
